1 compound from US8778961B2, “O-methylated rapamycin derivatives for alleviation and inhibition of lymphoproliferative disorders” (The Trustees of the University of Pennsylvania, priority 2000, dated 2014) can be followed below.

For one test, the system named is A1 tumors. As to the kind of experiment: inhibition of tumor establishment in SCID mice. It counts as in vivo. The method, then:
(§1) Establishment and passaging of the xenotransplanted tumors was performed as described (Douglas et al., 1998, Cytometry 32:57-65; Kawamata et al., 1998, Blood 91:561-569; Pepper et al., 1998, Leuk. Res. 22:439-444). To deplete macrophages and NK cells and to enhance tumor engraftment, SCID mice were injected intraperitoneally with 30-45 milligrams per kilogram of etoposide (Bedford Laboratories, Bedford, Ohio) 4 days prior to implantation of the human EBV^+ B-cell lines (Visonneau et al., 1998, Am. J. Path. 152:1299-1311). Ten million cells of each line employed (see results) were inoculated into mice either intraperitoneally or subcutaneously in 200 microliters of Dulbecco's Phosphate Buffered Saline (DPBS; BioWhittaker, Walkersville, Md.). Ascites or palpable subcutaneous tumors developed 3-5 weeks after cell injection.
(§2) Tumor treatment and growth inhibition experiments were performed using fragments of the established subcutaneous tumors (Pasqualucci et al., 1995, Blood 85:2139-2146, Visonneau et al., 1998, Am. J. Path. 152:1299-1311). For this purpose, mice were anesthetized with KETALAR™ (ketamine, Parke-Davis, Morris Plains, N.J.) by intraperitoneal injection of 100 milligrams per kilogram. Next, the primary tumor was aseptically removed and freed from necrotic, fatty and connective tissue and divided into small pieces of roughly equal size and 3-4 pieces per mouse were injected subcutaneously. Treatment of established tumors with SDZ RAD was started when tumors reached 5 millimeters diameter. In growth inhibition experiments, the treatment was initiated 3 days prior to the tumor implantation. Tumor volume in all experiments was determined from the equation: volume=0.4ab^2, where a and b designate respectively long and short diameter of the tumor. The transplanted mice were monitored for tumor growth for a period of up to 2 months. Five milligrams per kilogram of SDZ RAD was administered once a day by gavage as described (Schuurman et al., 1997, Transplantation 64:32-5; Schuler et al. 1997, Transplantation 64:36-42).
(§3) Mice were sacrificed by exposure to FORANE™ (isoflurane, Ohmeda, Liberty Place, N.J.) on day 29 in the drug toxicity study, on day 40-55 in the tumor growth inhibition study or when tumors achieved approximately 2 centimeter diameter, or when ulceration of the skin, signs of severe respiratory distress, weakness, or lethargy appeared. Complete autopsy was performed on all mice at the end of the study regardless of their appearance. Tumor and internal organs (spleen, liver, lung, heart, kidney, small and large intestines, femoral bone for bone marrow) were fixed in 10% (v/v) formalin, embedded in paraffin, cut into […] sections, transferred to glass slides, and stained with hematoxylin and eosin. Representative tumor fragments were stained immunohistochemically by standard streptavidin-biotin complex technique using commercially available reagents (Research Genetics, Huntsville, Ala.), antibodies: anti-CD20 (L-26) and LMP-1 (both from DAKO, Carpinteria, Calif.) and Ki67 (mib1; Immunotech, Westbrook, Me.). EBV-encoded RNA (EBER-1), and detected using commercially available reagents.
(§4) Because SDZ RAD, when used as an immunosuppressive agent, is administered chronically to transplant patients, its main therapeutic impact on PTLDs may be to inhibit their development rather than to alleviate the clinically symptomatic cases. To test if SDZ RAD can inhibit establishment of PTLD-like lymphomas, daily treatment with 5 milligrams per kilogram body weight of the drug was initiated 3 days prior to the tumor implantation. […] On day 25, the treated tumors measured in average 38 cubic millimeters, the untreated approximately 1940 cubic millimeters. On day 45, the median volume of the treated tumor was 480 cubic millimeters. In 20A tumors, 6 out of 11 tumors were not detectable on day 25; the median volume of the remaining 5 was 20 cubic millimeters. The average untreated tumor measured 210 cubic millimeters on that day. […]

In another test the test system is 15A tumors. As to the kind of experiment: inhibition of tumor establishment in SCID mice. It counts as in vivo. The method, then: as §1, §2, §3, §4
In the next test the test system is 20A tumors. As to the kind of experiment: inhibition of tumor establishment in SCID mice. The class given is in vivo. The method, then: as §1, §2, §3, §4
The test system of test [1] is PTLD-like B cell lines 20A, A1, A2D6, and LCL. As to the kind of experiment: cell cycle progression by propidium iodide flow cytometry. It counts as cell-based, human. The following applies: 48 hours. The protocol:
The cell lines to be examined were cultured with several concentrations of SDZ RAD (0 to 10 nanomolar) for 24-48 hours. The cells were washed with DPBS and stain solution (pH 7.2) containing 3% PEG 6000, 50 micrograms per milliliter DNA fluorochrome propidium iodide (PI; Calbiochem, San Diego, Calif.), annexin V-FITC as described (Douglas et al., 1998, Cytometry 32:57-65) 0.1% (v/v) TRITON™ X (Sigma, St. Louis, Mo.), 4 millimolar citrate buffer pH 7.8, and 360 units per milliliter RNase A (Worthington Biochemicals, Freehold, N.J.) for 30 minutes at 37 C. Next, salt solution pH 7.2 (3% w/v PEG 6000, PI 50 micrograms per milliliter, 0.1% v/v TRITON™ X, and 0.4 molar NaCl) was added, and the cells were incubated at 4° C. in the dark for 1 hour before flow cytometry analysis was performed, as described (Douglas et al., 1998, Cytometry 32:57-65; Kawamata et al., 1998, Blood 91:561-569; Pepper et al., 1998, Leuk. Res. 22:439-444).
Rapamycin and, presumably, O-alkylated rapamycin derivatives such as SDZ RAD, block cell cycle progression at the early stage in normal T cells (Terada et al., 1993, J. Cell Physiol. 154:7-15; Flanagan et al., 1993, Ann. N.Y. Acad. Sci. 696:31-37). […] The effect was drug dose and cell-line type dependent. […] Percentages of cells in the later phases of the cell cycle (G2-M and S) were diminished proportionally. A1 and, to a lesser degree, A2D6 cell line were particularly sensitive to SDZ RAD. Four EBV^+ B-cell lines were cultured for 48 hours with 0-10 nanomolar SDZ RAD, labeled with propidium iodine, and analyzed by flow cytometry.
For orientation: A flow cytometer gives signals particle by particle.

Where [2] appears, read: day 25, treatment from 3 days prior to implantation.

The structures appear in SMILES notation. Where “and” joins values, the source holds several entries; their conditions need not be identical. Equal values may be shown once.

For the compound `CO[C@H]1C[C@@H]2CC[C@@H](C)[C@@](O)(O2)C(=O)C(=O)N2CCCC[C@H]2C(=O)O[C@H]([C@H](C)C[C@@H]2CC[C@@H](OCCO)[C@H](OC)C2)CC(=O)[C@H](C)/C=C(\C)[C@@H](O)[C@@H](OC)C(=O)[C@H](C)C[C@H](C)/C=C/C=C/C=C/1C` [SDZ RAD, 40-O-(2-hydroxy)ethyl-rapamycin], the “tumor detection in the 8 treated mice” value with A1 tumors (day 29, treatment from 3 days prior to implantation) is “no tumor could be detected”. Further, in the test on A1 tumors (day 53, 8 treated mice), the “mice with no evidence of tumor (establishment completely inhibited)” value was 5 and 5/8; the “mice with small, histologically confirmed lymphomas” value was determined as 3. Also, the “volume of the small lymphomas” value in the test with A1 tumors (day 53, the 3 mice with lymphoma) is reported as less than 5 cubic millimeters. In the test on 15A tumors (5 milligrams per kilogram body weight daily, initiated 3 days prior to tumor implantation), the “effect on tumor growth and establishment” value is “profoundly delayed the tumor growth, but was unable to inhibit the tumor establishment”. Also, the “average treated tumor volume” value in the test on 15A tumors (setting [2]) worked out at 38 cubic millimeters. Moreover, the “median volume of the treated tumor” value in the test with 15A tumors (day 45, treatment from 3 days prior to implantation) came to 480 cubic millimeters. Moreover, the “treated mice with no signs of tumor (establishment completely inhibited)” value in the test with 20A tumors (11 treated mice, microscopic evaluation revealed no malignant cells) is “Five and 5/11”. In addition, the “median volume of the remaining 5 tumors” value in the test on 20A tumors (day 25) is recorded as 20 cubic millimeters. The tumors not detectable in the test on 20A tumors (setting [2]) was 6 out of 11. The “volume of treated tumors (none exceeded)” value in the test on 20A tumors (day 45) is given as not above 150 cubic millimeters. Further, in test [1] (all 4 cell lines, 0-10 nanomolar), the “cell cycle progression at the early, G0/G1 phase” value is “markedly inhibited”. Moreover, in test [1] (highest dose 10 nanomolar), the “increase in the percentage of cells in G0/G1” value was 10-70%. In addition, the “increase in the percentage of cells in G0/G1” value in test [1] (low doses 1-2 nanomolar) is on record as 5-25.
